# Data reported in the NIST ThermoML archive (doi:10.1016/j.fluid.2005.11.013).
# ± gives the expanded uncertainty stated by the source.
# Experiment: wn = mass fraction of the nth substance listed
# Conditions: Liquid; for mass density: Other PVT measurement; for viscosity: 17000 kPa, high pressure falling cylinger viscometer
smiles,measurement,setting,value
CC(=O)OC[C@H]1O[C@@H](OC(C)=O)[C@H](OC(C)=O)[C@@H](OC(C)=O)[C@H]1OC(C)=O [β-D-galactose pentaacetate] + O=C=O,mass density,"308 K, 10600 kPa, w1 = 0.206",930 ± 40 kg/m3
same,mass density,"308 K, 10600 kPa, w1 = 0.259",990 ± 40 kg/m3
same,mass density,"308 K, 11000 kPa, w1 = 0.259",1000 ± 40 kg/m3
same,mass density,"308 K, 11400 kPa, w1 = 0.206",940 ± 40 kg/m3
same,mass density,"308 K, 11700 kPa, w1 = 0.259",1010 ± 40 kg/m3
same,mass density,"308 K, 12300 kPa, w1 = 0.206",950 ± 40 kg/m3
same,mass density,"308 K, 12400 kPa, w1 = 0.259",1020 ± 40 kg/m3
same,mass density,"308 K, 13300 kPa, w1 = 0.259",1030 ± 40 kg/m3
same,mass density,"308 K, 13700 kPa, w1 = 0.206",960 ± 40 kg/m3
same,mass density,"308 K, 14900 kPa, w1 = 0.259",1040 ± 40 kg/m3
same,mass density,"308 K, 15000 kPa, w1 = 0.206",970 ± 40 kg/m3
same,mass density,"308 K, 15500 kPa, w1 = 0.206",970 ± 40 kg/m3
same,mass density,"308 K, 17100 kPa, w1 = 0.259",1060 ± 40 kg/m3
same,mass density,"313 K, 11900 kPa, w1 = 0.259",970 ± 40 kg/m3
same,mass density,"313 K, 12100 kPa, w1 = 0.206",940 ± 40 kg/m3
same,mass density,"313 K, 12600 kPa, w1 = 0.259",980 ± 40 kg/m3
same,mass density,"313 K, 12700 kPa, w1 = 0.206",940 ± 40 kg/m3
same,mass density,"313 K, 13300 kPa, w1 = 0.259",980 ± 40 kg/m3
same,mass density,"313 K, 13600 kPa, w1 = 0.206",950 ± 40 kg/m3
same,mass density,"313 K, 14200 kPa, w1 = 0.259",990 ± 40 kg/m3
same,mass density,"313 K, 15100 kPa, w1 = 0.206",960 ± 40 kg/m3
same,mass density,"313 K, 15100 kPa, w1 = 0.259",1000 ± 40 kg/m3
same,mass density,"313 K, 15800 kPa, w1 = 0.259",1010 ± 40 kg/m3
same,mass density,"313 K, 16200 kPa, w1 = 0.206",970 ± 40 kg/m3
same,mass density,"313 K, 17300 kPa, w1 = 0.259",1020 ± 40 kg/m3
same,mass density,"313 K, 17500 kPa, w1 = 0.206",980 ± 40 kg/m3
same,mass density,"313 K, 18500 kPa, w1 = 0.206",980 ± 40 kg/m3
same,mass density,"313 K, 19400 kPa, w1 = 0.206",980 ± 40 kg/m3
same,mass density,"313 K, 19800 kPa, w1 = 0.259",1040 ± 40 kg/m3
same,mass density,"318 K, 14400 kPa, w1 = 0.206",930 ± 40 kg/m3
same,mass density,"318 K, 15100 kPa, w1 = 0.206",940 ± 40 kg/m3
same,mass density,"318 K, 15900 kPa, w1 = 0.206",940 ± 40 kg/m3
same,mass density,"318 K, 16700 kPa, w1 = 0.206",950 ± 40 kg/m3
same,viscosity,"318 K, w1 = 0.18",0.095 ± 0.004 mPa·s
same,viscosity,"318 K, w1 = 0.25",0.103 ± 0.004 mPa·s
same,mass density,"318 K, 17900 kPa, w1 = 0.206",960 ± 40 kg/m3
same,mass density,"318 K, 20300 kPa, w1 = 0.206",970 ± 40 kg/m3
same,mass density,"323 K, 15500 kPa, w1 = 0.206",930 ± 40 kg/m3
same,mass density,"323 K, 16000 kPa, w1 = 0.206",940 ± 40 kg/m3
same,mass density,"323 K, 16600 kPa, w1 = 0.206",940 ± 40 kg/m3
same,mass density,"323 K, 17700 kPa, w1 = 0.206",950 ± 40 kg/m3
same,mass density,"323 K, 18900 kPa, w1 = 0.206",960 ± 40 kg/m3
